Ten compounds from patent publication US8431565B2 (priority 2007, dated 2013) can be followed below.

For this assay, the target named is human CB1 receptor (hCB1) (Homo sapiens, UniProt P21554). The format is cell-based.
human CB1 receptor (hCB1), sequence (P21554 whole entry): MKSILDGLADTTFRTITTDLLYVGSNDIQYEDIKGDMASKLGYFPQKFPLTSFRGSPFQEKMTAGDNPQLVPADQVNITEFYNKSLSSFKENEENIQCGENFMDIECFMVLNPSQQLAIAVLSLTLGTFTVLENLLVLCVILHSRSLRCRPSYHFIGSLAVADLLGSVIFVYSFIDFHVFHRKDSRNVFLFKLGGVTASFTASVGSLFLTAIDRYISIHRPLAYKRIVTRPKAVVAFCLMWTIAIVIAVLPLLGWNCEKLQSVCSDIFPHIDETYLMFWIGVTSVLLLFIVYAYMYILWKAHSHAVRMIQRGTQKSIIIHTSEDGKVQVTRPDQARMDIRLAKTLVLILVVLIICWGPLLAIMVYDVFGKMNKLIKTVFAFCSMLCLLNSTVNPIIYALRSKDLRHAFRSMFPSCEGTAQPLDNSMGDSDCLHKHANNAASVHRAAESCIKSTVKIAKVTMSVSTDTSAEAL
As to `CNC(=O)[C@@H](NC(=O)c1nc(-c2cnn(CC(C)C)c2)n2c1CN(C)CCC2)C(C)(C)C` [Compound 710, (S)-N-(3,3-dimethyl-1-(methylamino)-1-oxobutan-2-yl)-3-(1-isobutyl-1H-pyrazol-4-yl)-8-methyl-6,7,8,9-tetrahydro-5H-imidazo[1,5-a][1,4]diazepine-1-carboxamide], the EC50 (in general, the concentration that produces a half-maximal response) is over 10 µM.
As for `CN1CCCn2c(-c3cc(C(F)(F)F)ccc3F)nc(C(=O)N[C@H](C(=O)NCCF)C(C)(C)C)c2C1` [Compound 810, (S)-3-(2-fluoro-5-(trifluoromethyl)phenyl)-N-(1-(2-fluoroethylamino)-3,3-dimethyl-1-oxobutan-2-yl)-8-methyl-6,7,8,9-tetrahydro-5H-imidazo[1,5-a][1,4]diazepine-1-carboxamide], the figure is over 10 µM; as for `CNC(=O)[C@@H](NC(=O)c1nc(-c2ccnc(-c3ccnc(Cl)c3)c2)n2c1CN(C)CCC2)C(C)(C)C` [Compound 625, (S)-3-(2′-chloro-2,4′-bipyridin-4-yl)-N-(3,3-dimethyl-1-(methylamino)-1-oxobutan-2-yl)-8-methyl-6,7,8,9-tetrahydro-5H-imidazo[1,5-a][1,4]diazepine-1-carboxamide], over 10 µM; as for `CN1CCCn2c(-c3cc(Cl)c(F)cc3F)nc(C(=O)N3CC(F)(F)C3)c2C1` [Compound 823, (3-(5-chloro-2,4-difluorophenyl)-8-methyl-6,7,8,9-tetrahydro-5H-imidazo[1,5-a][1,4]diazepin-1-yl)(3,3-difluoroazetidin-1-yl)methanone], over 10 µM.
For `CNC(=O)[C@@H](NC(=O)c1nc(-c2ccnc(C)c2)n2c1CN(C)CCC2)C(C)(C)C` [Compound 638, (S)-N-(3,3-dimethyl-1-(methylamino)-1-oxobutan-2-yl)-8-methyl-3-(2-methylpyridin-4-yl)-6,7,8,9-tetrahydro-5H-imidazo[1,5-a][1,4]diazepine-1-carboxamide] the value was over 10 µM.
As for `CC1CCN(CC(C)(C)NC(=O)c2nc(-c3cc(Cl)c(F)cc3F)n3c2CN(C)CCC3)CC1` [Compound 880, 3-(5-chloro-2,4-difluorophenyl)-8-methyl-N-(2-methyl-1-(4-methylpiperidin-1-yl)propan-2-yl)-6,7,8,9-tetrahydro-5H-imidazo[1,5-a][1,4]diazepine-1-carboxamide], the figure is over 10 µM.
`CN1CCCn2c(-c3cc(Cl)c(F)cc3F)nc(C(=O)NC3(C(=O)N4CC(F)(F)C4)CC3)c2C1` [Compound 873, 3-(5-chloro-2,4-difluorophenyl)-N-(1-(3,3-difluoroazetidine-1-carbonyl)cyclopropyl)-8-methyl-6,7,8,9-tetrahydro-5H-imidazo[1,5-a][1,4]diazepine-1-carboxamide]: the 50% effective concentration (EC50) was over 10 µM.
For `CNC(=O)[C@@H](NC(=O)c1nc(C2=CCCCO2)n2c1CN(C)CCC2)C(C)(C)C` [Compound 452, (S)-3-(3,4-dihydro-2H-pyran-6-yl)-N-(3,3-dimethyl-1-(methylamino)-1-oxobutan-2-yl)-8-methyl-6,7,8,9-tetrahydro-5H-imidazo[1,5-a][1,4]diazepine-1-carboxamide] the value was over 10 µM; for `CC(C)(C)[C@H](NC(=O)c1nc(-c2ccccc2)n2c1CNCC2)C(=O)N1CCOCC1` [Compound 733, (S)-N-(3,3-dimethyl-1-morpholino-1-oxobutan-2-yl)-3-phenyl-5,6,7,8-tetrahydroimidazo[1,5-a]pyrazine-1-carboxamide], over 10 µM.
For `CN1CCCn2c(-c3cc(Cl)ccc3F)nc(C(=O)N[C@H](CN)C(C)(C)C)c2C1` [Compound 768, (S)-N-(1-amino-3,3-dimethylbutan-2-yl)-3-(5-chloro-2-fluorophenyl)-8-methyl-6,7,8,9-tetrahydro-5H-imidazol[1,5-a][1,4]diazepine-1-carboxamide] the value was over 10 µM.
